This passage reports DC50 and Dmax results from US20240190841A1, “MODULATORS OF BCL6 PROTEOLYSIS AND ASSOCIATED METHODS OF USE” (Arvinas Operations, Inc., priority 2022, published 2024).

A value given as a limit tells only on which side of the number the result lay.

The test deals with T1, BCL6 (Homo sapiens, UniProt P41182).
T1 construct: endogenous in cells; host or cells: T47D breast cancer epithelial cells
Nature of the test: Immunofluorescence high content imaging of BCL6 degradation in T47D cells. The test is classed as cell-based. The settings on record: T47D breast cancer epithelial cells, 3 days incubation. As for the experimental part: Immunofluorescence Protocol for High Content Imaging of BCL6
T47D cells were seeded in 100 μl volume of RPMI11640-10% FBS in a 96-well black/clear bottom plates for adherent lines (Corning #3904).
Day 1. T47D breast cancer epithelial cells were seeded at a density so that confluence is ˜70-90% at endpoint. Cells were seeded at 7K/0.1 mL/well the morning prior to the addition of exemplary bifunctional degradation compounds.
Day 2. Prepare an 11 point 3-fold serial dilution of exemplary bifunctional compound in DMSO and aliquot an appropriate volume to cell growth media to generate a 2× final concentration of exemplary bifunctional compound. Add an equal volume (0.1 ml) of 2× exemplary bifunctional compound/media mix to previously plated cells, for a final top concentration in aqueous cell growth media of 0.1 or 1 μM. Incubate for 3 days at 37° C., 5% CO2.
Day 5 Immunofluorescence. Discard cell media. Wash wells with 200 μl of room temperature phosphate-buffered saline (PBS). Prepared 4% paraformaldehyde (PFA) from 16% PFA (Electron Microscopy Sciences #15710) using 1×PBS. Fifty μL of 4% PF was added to each well and incubate for 15 minutes at room temperature to fix the cells. The PFA was aspirated and the cells washed twice with PBS (200 μL)).
Prepared 0.1% Triton X-100 in PBS using 10% triton X-100 stock. The cells were permeabilized by adding 100 μL of the 0.1% Triton X-100 in PBS to each well to permeabilize cells and incubating at room temperature for 15 minutes. Cells were washed twice with PBS.
Prepared 3% BSA/PBS (from Thermofisher #37515 Blocker BSA in TBS, 10%), and 100 μL was added to each well. The cells were incubated for at least 1 hour at room temperature.
Prepared 1% BSA/PBS using Blocker BSA/PBS, and the 3% BSA/PBS removed from the wells.
For no primary antibody controls, 50 μL 1% BSA/PBS was added.
Primary antibody (BCL6 Rb Ab, CST-14895, Cell Signaling) was diluted 1:300 in 1% BSA/PBS using Blocker BSA/PBS.
Fifty μl of primary antibody added to all remaining wells (i.e., all wells other than the primary antibody controls) and the cells were incubated overnight at 4° C. with slow orbital movement.
Day 6. Contents of the wells was removed and the cells washed four times with 200 μL PBS. 1% BSA/PBS was prepared using Blocker BSA in PBS.
Diluted secondary antibody goat anti-Rb IgG Alexa-488 1:1000, and cell mask-Alexa-647 1:3000 in 1% BSA/PBS in the same mix. Add 50 μL to each well and incubate at room temperature for 1 hour in the dark.
Cells were washed three times with 200 μL PBS, and then incubated for 10 minutes with 100 μL Hoechst dye at 1 μg/mL (20 mM stock) to stain cell nuclei. Wells were then washed with 200 μl PBS, and 100 μL of PBS was added to each well and the plate covered plate with a plastic opaque cover. Plates were stored at […] and covered in aluminum foil until imaged.
Plates were equilibrated to room temperature prior to reading. The bottom of the plate was wiped with 70% isopropanol immediately prior to imaging.
Imaging: • 10×, 4 fields/well, include Top hat smoothing in the analysis protocol.
Supplies/Reagents: • 16% paraformaldehyde: Electron Microscopy Sciences #15710 • Hoechst: Thermofisher #62249 • Blocker BSA in PBS, 10%: Thermofisher #37515 • Blocker BSA in TBS, 10%: Thermofisher #37520 • Goat anti-rabbit or mouse AlexaFluor-488: Thermofisher #A11008 • Cell mask deep red AlexaFluor-647: Thermofisher #C10046 • Wash buffer, PBS: 20×PBS, Thermofisher
By DC50 is commonly meant the concentration giving 50% degradation. A word on the Dmax: it is the greatest extent of degradation seen. As to `CNC(=O)COc1cc2cc(Nc3nc(N4CCC(O[C@H]5C[C@H](N6CCN(c7ccc8c(cnn8C8CCC(=O)NC8=O)c7)CC6)C5)CC4)ncc3Cl)ccc2n(C(C)C)c1=O` (some centres unmarked) [Compound 21, 2-({6-[(5-chloro-2-{4-[(1r,3r)-3-{4-[1-(2,6-dioxopiperidin-3-yl)-1H-indazol-5-yl]piperazin-1-yl}cyclobutoxy]piperidin-1-yl}pyrimidin-4-yl)amino]-2-oxo-1-(propan-2-yl)-1,2-dihydroquinolin-3-yl}oxy)-N-methylacetamide], the DC50 is less than 10 nM and the Dmax was no less than 70%.

As for `CNC(=O)COc1cc2cc(Nc3nc(N4CCC(O[C@H]5C[C@H](N6CCN(c7ccc8nn(C9CCC(=O)NC9=O)cc8c7)CC6)C5)CC4)ncc3Cl)ccc2n(C(C)C)c1=O` (some centres unmarked) [Compound 22, 2-({6-[(5-chloro-2-{4-[(1r,3r)-3-{4-[2-(2,6-dioxopiperidin-3-yl)-2H-indazol-5-yl]piperazin-1-yl}cyclobutoxy]piperidin-1-yl}pyrimidin-4-yl)amino]-2-oxo-1-(propan-2-yl)-1,2-dihydroquinolin-3-yl}oxy)-N-methylacetamide], the DC50 was in the range of 10 to 50 nM and the Dmax fell in the range of 50 to 70%. On to `CNC(=O)COc1cc2cc(Nc3nc(N4CCC(O[C@H]5C[C@H](N6CCN(c7ccc8c(c7)ncn8C7CCC(=O)NC7=O)CC6)C5)CC4)ncc3Cl)ccc2n(C(C)C)c1=O` (some centres unmarked) [Compound 23], for which the DC50 is less than 10 nM and the Dmax was 50 to 70%. Regarding `CNC(=O)COc1cc2cc(Nc3nc(N4CCC(O[C@H]5C[C@H](N6CCN(c7ccc8ncn(C9CCC(=O)NC9=O)c8c7)CC6)C5)CC4)ncc3Cl)ccc2n(C(C)C)c1=O` (some centres unmarked) [Compound 24, 2-({6-[(5-chloro-2-{4-[(1r,3r)-3-{4-[1-(2,6-dioxopiperidin-3-yl)-1H-1,3-benzodiazol-6-yl]piperazin-1-yl}cyclobutoxy]piperidin-1-yl}pyrimidin-4-yl)amino]-2-oxo-1-(propan-2-yl)-1,2-dihydroquinolin-3-yl}oxy)-N-methylacetamide], the DC50 was less than 10 nM and the Dmax was no less than 70%.

`CNC(=O)COc1cc2cc(Nc3nc(N4CCC(O[C@H]5C[C@H](N6CCN(c7cc(OC)c8c(c7)n(C)c(=O)n8C7CCC(=O)NC7=O)CC6)C5)CC4)ncc3Cl)ccc2n(C(C)C)c1=O` (some centres unmarked) [Compound 25, 2-({6-[(5-chloro-2-{4-[(1r,3r)-3-{4-[1-(2,6-dioxopiperidin-3-yl)-7-methoxy-3-methyl-2-oxo-2,3-dihydro-1H-1,3-benzodiazol-5-yl]piperazin-1-yl}cyclobutoxy]piperidin-1-yl}pyrimidin-4-yl)amino]-2-oxo-1-(propan-2-yl)-1,2-dihydroquinolin-3-yl}oxy)-N-methylacetamide] returned a DC50 of less than 10 nM. In turn, `CNC(=O)COc1cc2cc(Nc3nc(N4CCC(O[C@H]5C[C@H](N6CCN(c7cc(C)c8c(c7)n(C)c(=O)n8C7CCC(=O)NC7=O)CC6)C5)CC4)ncc3Cl)ccc2n(C(C)C)c1=O` (some centres unmarked) [Compound 26, 2-({6-[(5-chloro-2-{4-[(1r,3r)-3-{4-[1-(2,6-dioxopiperidin-3-yl)-3,7-dimethyl-2-oxo-2,3-dihydro-1H-1,3-benzodiazol-5-yl]piperazin-1-yl}cyclobutoxy]piperidin-1-yl}pyrimidin-4-yl)amino]-2-oxo-1-(propan-2-yl)-1,2-dihydroquinolin-3-yl}oxy)-N-methylacetamide] had a DC50 of 10 to 50 nM and a Dmax of 50 to 70%. `CNC(=O)COc1cc2cc(Nc3nc(N4CCC(O[C@H]5C[C@H](N6CCN(c7cc(F)c8c(c7F)n(C)c(=O)n8C7CCC(=O)NC7=O)CC6)C5)CC4)ncc3Cl)ccc2n(C(C)C)c1=O` (some centres unmarked) [Compound 27, 2-({6-[(5-chloro-2-{4-[(1r,3r)-3-{4-[1-(2,6-dioxopiperidin-3-yl)-4,7-difluoro-3-methyl-2-oxo-2,3-dihydro-1H-1,3-benzodiazol-5-yl]piperazin-1-yl}cyclobutoxy]piperidin-1-yl}pyrimidin-4-yl)amino]-2-oxo-1-(propan-2-yl)-1,2-dihydroquinolin-3-yl}oxy)-N-methylacetamide]: the DC50 is less than 10 nM and the Dmax was no less than 70%. As for `CNC(=O)COc1cc2cc(Nc3nc(N4CCC(O[C@H]5C[C@H](N6CCN(c7ccc8c(c7F)n(C(C)C)c(=O)n8C7CCC(=O)NC7=O)CC6)C5)CC4)ncc3Cl)ccc2n(C(C)C)c1=O` (some centres unmarked) [Compound 28, 2-({6-[(5-chloro-2-{4-[(1r,3r)-3-{4-[1-(2,6-dioxopiperidin-3-yl)-4-fluoro-2-oxo-3-(propan-2-yl)-2,3-dihydro-1H-1,3-benzodiazol-5-yl]piperazin-1-yl}cyclobutoxy]piperidin-1-yl}pyrimidin-4-yl)amino]-2-oxo-1-(propan-2-yl)-1,2-dihydroquinolin-3-yl}oxy)-N-methylacetamide], the DC50 was less than 10 nM and the Dmax is no less than 70%. The corresponding values for `CNC(=O)COc1cc2cc(Nc3nc(N4CCC(O[C@H]5C[C@H](N6CCN(c7cc(F)c8c(c7)n(C(C)C)c(=O)n8C7CCC(=O)NC7=O)CC6)C5)CC4)ncc3Cl)ccc2n(C(C)C)c1=O` (some centres unmarked) [Compound 29, 2-({6-[(5-chloro-2-{4-[(1r,3r)-3-{4-[1-(2,6-dioxopiperidin-3-yl)-7-fluoro-2-oxo-3-(propan-2-yl)-2,3-dihydro-1H-1,3-benzodiazol-5-yl]piperazin-1-yl}cyclobutoxy]piperidin-1-yl}pyrimidin-4-yl)amino]-2-oxo-1-(propan-2-yl)-1,2-dihydroquinolin-3-yl}oxy)-N-methylacetamide] are less than 10 nM and no less than 70%.

`CNC(=O)COc1cc2cc(Nc3nc(N4CCC(O[C@H]5C[C@H](N6CCN(c7cc(C)c8c(c7)CN(C7CCC(=O)NC7=O)C8=O)CC6)C5)CC4)ncc3Cl)ccc2n(C(C)C)c1=O` (some centres unmarked) [Compound 36, 2-({6-[(5-chloro-2-{4-[(1r,3r)-3-{4-[2-(2,6-dioxopiperidin-3-yl)-7-methyl-1-oxo-3H-isoindol-5-yl]piperazin-1-yl}cyclobutoxy]piperidin-1-yl}pyrimidin-4-yl)amino]-1-isopropyl-2-oxoquinolin-3-yl}oxy)-N-methylacetamide] returned a DC50 of less than 10 nM and a Dmax of 50 to 70%. The corresponding values for `CNC(=O)COc1cc2cc(Nc3nc(N4CCC(O[C@H]5C[C@H](N6CCC(c7cc(C)c8c(c7)CN(C7CCC(=O)NC7=O)C8=O)CC6)C5)CC4)ncc3Cl)ccc2n(C(C)C)c1=O` (some centres unmarked) [Compound 37, 2-({6-[(5-chloro-2-{4-[(1r,3r)-3-{4-[2-(2,6-dioxopiperidin-3-yl)-7-methyl-1-oxo-3H-isoindol-5-yl]piperidin-1-yl}cyclobutoxy]piperidin-1-yl}pyrimidin-4-yl)amino]-1-isopropyl-2-oxoquinolin-3-yl}oxy)-N-methylacetamide] are less than 10 nM and no less than 70%. `CNC(=O)COc1cc2cc(Nc3nc(N4CCC(O[C@H]5C[C@H](N6CC[C@@H](c7cc(C)c8c(c7F)CN([C@H]7CCC(=O)NC7=O)C8=O)[C@@H](F)C6)C5)CC4)ncc3Cl)ccc2n(C(C)C)c1=O` [Compound 38, 2-({6-[(5-chloro-2-{4-[(1r,3r)-3-[(3R,4S)-4-{2-[(3S)-2,6-dioxopiperidin-3-yl]-4-fluoro-7-methyl-1-oxo-3H-isoindol-5-yl}-3-fluoropiperidin-1-yl]cyclobutoxy]piperidin-1-yl}pyrimidin-4-yl)amino]-1-isopropyl-2-oxoquinolin-3-yl}oxy)-N-methylacetamide] came in with a DC50 of less than 10 nM and a Dmax of 50 to 70%.
